# Results: US20020019527A1 (priority 2000, published 2002)
# Where a name gives a salt, the structure may show the parent alone.
# Target: T1, Farnesyltransferase (FTase) (Bos taurus, UniProt P29702+P49355)
# T1 construct: precipitation from a beef brain homogenate; from tissue; host or cells: bovine brain
# Assay: Farnesyltransferase inhibition (scintillation proximity assay, [3H]-FPP / biotin-K-ras peptide)
# Type: biochemical, bovine
# Settings: not given
# Method: Farnesyltransferase (FTase) or geranylgeranyltransferase I (GGTase I) fractions were isolated from bovine brains and purified by a series of methods which separate FTase from GGTase I and GGTase I from GGTase II. The methods involved a partial purification of all three enzymes by precipitation from a beef brain homogenate with 30% to 50% saturated […] followed by chromatography on DEAE Sepharose. […] The catalytic purity of each enzyme was assayed separately with substrate acceptor proteins specific for that enzyme. After quickly freezing in liquid nitrogen, the various prenyl transferases were stored at −80° C.
# The quenched reactions stood for 1 hour before analysis in a Packard TopCount scintillation counter. Purified compounds were dissolved in 100% ethanol and diluted 10-fold into the assay.
# T1 sequence (P49355 whole entry, one chain of several): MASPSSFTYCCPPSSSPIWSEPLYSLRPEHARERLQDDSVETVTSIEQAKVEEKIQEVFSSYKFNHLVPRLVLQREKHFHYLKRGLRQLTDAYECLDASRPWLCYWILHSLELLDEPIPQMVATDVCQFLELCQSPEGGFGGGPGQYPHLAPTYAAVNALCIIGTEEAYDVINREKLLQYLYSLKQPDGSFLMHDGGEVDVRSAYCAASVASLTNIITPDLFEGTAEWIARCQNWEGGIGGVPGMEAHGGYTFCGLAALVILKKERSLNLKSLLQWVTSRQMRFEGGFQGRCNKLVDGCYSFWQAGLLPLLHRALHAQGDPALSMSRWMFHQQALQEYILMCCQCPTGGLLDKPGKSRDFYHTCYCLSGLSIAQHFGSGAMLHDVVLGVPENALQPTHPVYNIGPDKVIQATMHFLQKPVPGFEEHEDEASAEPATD
row,SMILES,% Inhibition at 10^−6M [%]
1,Cc1ccc(COC(c2ccc(C#N)c(-c3ccccc3C)c2)c2cncn2C)cc1.Cl (stereo not drawn) [Example 127],93
2,Cc1ccccc1-c1cc(C(c2cncn2C)N2CCN(c3cccc(OC(F)(F)F)c3)C(=O)C2)ccc1C#N.Cl.Cl (stereo not drawn) [Example 15],100
3,Cc1ccccc1-c1cc(C(OCc2ccc(C(F)(F)F)cc2)c2cncn2C)ccc1C#N.Cl (stereo not drawn) [Example 139],97

# Same assay, conditions: compound at 10^−6 M; bovine FTase, 37° C., 30 minutes
SMILES,inhibition at 1 µM [%],% Inhibition at 10^−6M [%]
"Cc1ccccc1-c1cc(C(OCc2cc(F)ccc2F)c2cncn2C)ccc1C#N (stereo not drawn) [Example 129, 5-(((2,5-difluorobenzyl)oxy)(1-methyl-1H-imidazol-5-yl)methyl)-2′-methyl(1,1′-biphenyl)-2-carbonitrile hydrochloride]",93,–
"Cl.Cl.Cn1cncc1C(OCc1ccc(C(F)(F)F)c(F)c1)c1ccc(C#N)c(-c2cccc3cccnc23)c1 (stereo not drawn) [Example 241, 4-(((3-fluoro-4-(trifluoromethyl)benzyl)oxy)(1-methyl-1H-imidazol-5-yI)methyl)-2-(8-quinolinyl)benzonitrile dihydrochloride]",–,98
"CNC(=O)c1ccc(CNC(c2ccc(C#N)c(-c3cccc4ccccc34)c2)c2cncn2C)cc1 (stereo not drawn) [Example 48, 4-((((4-cyano-3-(1-naphthyl)phenyl)(1-methyl-1H-imidazol-5-yl)methyl)amino)methyl)-N-methylbenzamide dihydrochloride]",100,–
"Cc1ccccc1-c1cc(C(NCC2CCCCC2)c2cncn2C)ccc1C#N (stereo not drawn) [Example 24, 5-(((cyclohexylmethyl)amino)(1-methyl-1H-imidazol-5-yl)methyl)-2′-methyl(1,1′-biphenyl)-2-carbonitrile]",100,–
"Cn1cncc1C(NC1CCN(C(=O)c2ccccc2)CC1)c1ccc(C#N)c(-c2cccc3ccccc23)c1 (stereo not drawn) [Example 57, 4-(((1-benzoyl4-piperidinyl)amino)(1-methyl-1H-imidazol-5-yl)methyl)-2-(1-naphthyl)benzonitrile dihydrochloride]",100,–
"Cn1cncc1C(OCc1ccc(OC(F)(F)F)cc1)c1ccc(C#N)c(-c2cccc3ccccc23)c1 (stereo not drawn) [Example 67, 4-((1-methyl-1H-imidazol-5-yl)((4-(trifluoromethoxy)benzyl)oxy)methyl)-2-(1-naphthyl)benzonitrile hydrochloride]",100,–

# More lines, main results first:
inhibition at 1 µM [%],SMILES,% Inhibition at 10^−6M [%]
95,"Cc1ccccc1-c1cc(C(OCc2cccc(F)c2)c2cncn2C)ccc1C#N (stereo not drawn) [Example 136, 5-(((3-fluorobenzyl)oxy)(1-methyl-1H-imidazol-5-yl)methyl)-2′-methyl(1,1′-biphenyl)-2-carbonitrile hydrochloride]",–
90,"Cn1cncc1C(OCc1ccc(C#N)cc1)c1ccc(C#N)c(-c2ccccc2C(=O)O)c1 (stereo not drawn) [Example 205, 2′-cyano-5′-(((4-cyanobenzyl)oxy)(1-methyl-1H-imidazol-5-yl)methyl)(1,1′-biphenyl)-2-carboxylic acid]",–
95,"Cn1cncc1C(OCc1ccc(C#N)cn1)c1ccc(C#N)c(-c2cccc3cccnc23)c1 (stereo not drawn) [Example 247, 6-(((4-cyano-3-(8-quinolinyl)phenyl)(1-methyl-1H-imidazol-5-yl)methoxy)methyl)nicotinonitrile trihydrochloride]",–
91,"Cn1cncc1CN(Cc1ccc(C(=O)O)cc1)Cc1ccc(C#N)c(-c2cccc3ccccc23)c1 [Example 193, 4-(((4-cyano-3-(1-naphthyl)benzyl)((1-methyl-1H-imidazol-5-yl)methyl)amino)methyl)benzoic acid dihydrochloride]",–
100,"Cn1cncc1CN(C(=O)c1ccccc1)c1ccc(C#N)c(-c2cccc3ccccc23)c1 [Example 235, N-(4-cyano-3-(1-naphthyl)phenyl)-N-((1-methyl-1H-imidazol-5-yl)methyl)benzamide]",–
92,"Cc1ccccc1-c1cc(C(OCc2cc(F)cc3c2OCOC3)c2cncn2C)ccc1C#N (stereo not drawn) [Example 156, 5-(((6-fluoro-4H-1,3-benzodioxin-8-yl)methoxy)(1-methyl-1H-imidazol-5-yl)methyl)-2′-methyl(1,1′-biphenyl)-2-carbonitrile hydrochloride]",–
